One compound from article PMC5127132 (2016) can be followed below.

Assay [1] has as its system H12 (5'-FAM) (DNA, aptamer) GGGAGGACGAAGCGGAACCGGGTGTGGGTGCCTTGATCCAGGGAGTCTCAGAAGACACGCCCGACA
Briefly: microscale thermophoresis. The settings on record: 137 mM NaCl, 2.7 mM KCl, 1 mM MgCl2; 10 mM Na2HPO4, 2 mM KH2PO4, pH 7.4, 25 °C. On the technique in general: Microscale thermophoresis detects binding through changes in fluorescence in a small temperature gradient.

Assay [2] deals with A08min (5'-FAM) (DNA, aptamer) GGCAGTGTGGGCGAATCTATGCGTACCGTTCGATATCGTG
Kind of assay: microscale thermophoresis. To be noted: 137 mM NaCl, 2.7 mM KCl; 10 mM Na2HPO4, 2 mM KH2PO4, pH 7.4, 25 °C.

Assay [3] relates to A08 (5'-FAM) (DNA, aptamer) AGCCTCGTCTGTTCTCCCGGCAGTGTGGGCGAATCTATGCGTACCGTTCGATATCGTGGGGAAGACAAGCAGACGT
Briefly: microscale thermophoresis. The settings on record: 137 mM NaCl, 2.7 mM KCl; 10 mM Na2HPO4, 2 mM KH2PO4, pH 7.4, 25 °C.

Assay [4] deals with H8 (5'-FAM) (DNA, aptamer) GGGAGGACGAAGCGGAACTGGGTGTGGGGTGATCAAGGGAGTAGACTACAGAAGACACGCCCGACA
Kind of assay: microscale thermophoresis. To be noted: 137 mM NaCl, 2.7 mM KCl, 1 mM MgCl2; 10 mM Na2HPO4, 2 mM KH2PO4, pH 7.4, 25 °C.

Assay [5] relates to A08min (DNA, aptamer) GGCAGTGTGGGCGAATCTATGCGTACCGTTCGATATCGTG
Briefly: SYBR Green I displacement. To be noted: 137 mM NaCl, 2.7 mM KCl; 10 mM Na2HPO4, 2 mM KH2PO4, pH 7.4; OTA 0.2 to 70 nM.

Assay [6] shares this test system. Kind of assay: gold nanoparticle aggregation. To be noted: 0.5 M NaCl added last; in water; OTA 0.2 to 70 nM.
Assay [7] concerns A08 (DNA, aptamer) AGCCTCGTCTGTTCTCCCGGCAGTGTGGGCGAATCTATGCGTACCGTTCGATATCGTGGGGAAGACAAGCAGACGT
Kind of assay: gold nanoparticle aggregation. To be noted: 0.5 M NaCl added last; in water; OTA 0.2 to 70 nM.

Assay [8] relates to 1.12.2 (DNA, aptamer) GATCGGGTGTGGGTGGCGTAAAGGGAGCATCGGACA
Briefly: gold nanoparticle aggregation. To be noted: 0.5 M NaCl added last; in water; OTA 0.2 to 70 nM.

Assay [9] has the same test system. Kind of assay: SYBR Green I displacement. To be noted: 120 mM NaCl, 5 mM KCl, 10 mM CaCl2; 10 mM HEPES, pH 7.0; OTA 0.2 to 70 nM.
Assay [10] concerns A08 (DNA, aptamer) AGCCTCGTCTGTTCTCCCGGCAGTGTGGGCGAATCTATGCGTACCGTTCGATATCGTGGGGAAGACAAGCAGACGT
Briefly: SYBR Green I displacement. To be noted: 137 mM NaCl, 2.7 mM KCl; 10 mM Na2HPO4, 2 mM KH2PO4, pH 7.4; OTA 0.2 to 70 nM.

For assay [11], the system named is 1.12.2 (5'-FAM) (DNA, aptamer) GATCGGGTGTGGGTGGCGTAAAGGGAGCATCGGACA
Briefly: microscale thermophoresis (raw fluorescence, quenching). To be noted: 120 mM NaCl, 5 mM KCl, 10 mM CaCl2; 10 mM HEPES, pH 7.0, 25 °C; raw fluorescence quenching analysed, may have skewed KD.

Regarding `C[C@@H]1Cc2c(Cl)cc(C(=O)N[C@@H](Cc3ccccc3)C(=O)O)c(O)c2C(=O)O1`, the dissociation constant KD in assay [1] is given as 629.5 ± 79.7 nM; in [2], 96.5 ± 33.3 nM; in assay [3], 232.6 ± 80.6 nM; in assay [4], 416.1 ± 119.0 nM; in assay [11], 524.8 ± 147.8 nM. Also, the binding entry in assay [5], in assay [6], in [7], in [8], in assay [9] and in assay [10] was “yes” in each case.

Broadly, the KD is the constant that tells how readily two partners part at equilibrium. Read a high KD as weaker binding.
